This note sets out measurements from patent US9573956B2, “Compounds as dual inhibitors of phosphodiesterases and histone deacetylases” (FUNDACIÓN PARA LA INVESTIGACIÓN MÉDICA APLICADA, priority 2013, dated 2017).

Data set [1] relates to pCREB. In words: PDE activity in wild type primary neurons (Western blot pCREB). The data set is classed as cell-based. To be noted: Mus musculus, Neuron, 0.5 h, 30 min, EC50 = 50% increase in pCREB over basal.
Data set [2] has as its system pCREB. In words: In-vivo activity, hippocampus of wild type mice: pCREB. Details: species or system mouse. Conditions: i.p. 40 mg/kg, hippocampus one hour later. The procedure:
(§1) To determine the ability of the compounds to inhibit HDAC and PDE in the brain, the compound was administered to wild type mice by i.p. at a dose of 40 mg/kg (n=3). Another group of animals received the vehicle (1/1/8, v:v:v, DMSO/Tween 20/saline). One hour later, mice were sacrificed by cervical dislocation and their hippocampus was quickly dissected from the brains.
(§2) Total tissue homogenates were obtained by homogenizing the hippocampus in a cold lysis buffer with protease inhibitors (0.2 M NaCl, 0.1 M HEPES, 10% glycerol, 200 mM NaF, 2 mM Na4P2O7, 5 mM EDTA, 1 mM EGTA, 2 mM DTT, 0.5 mM PMSF, 1 mM Na3VO4 and Complete Protease Inhibitor Cocktail, Roche Diagnostics). The homogenate was then centrifuged at 14,000×g at 4° C. for 20 min and the supernatant aliquoted and stored at −80° C. Total protein concentrations were determined using the BioRad Bradford protein assay (BioRad Laboratories). Protein samples were analyzed as described in the “in vitro” section.

The target in another data set is T1, PDE5A (Homo sapiens, UniProt O76074).
T1 construct: they are full-length with N-terminal GST tag; GST (N); purchased BPS Biosciences 60050; host or cells: baculovirus infected Sf9 cells
In words: PDE enzyme activity assay (HTRF cGMP), PDE5A. The data set is classed as biochemical. To be noted: recombinant enzyme; read-out: PDE5A1 inhibition (IC50).

For data set [3], the system named is acetylated histone 3 at Lys9 (AcH3K9). In words: HDAC activity in wild type primary neurons (Western blot AcH3K9). To be noted: 30 min, EC50 = 50% increase in AcH3K9 over basal. The data set is classed as cell-based, mouse.
A short description of data set [4]: Pharmacokinetics, plasma and brain concentrations in wild type mice. The data set is classed as in vivo. To be noted: mouse, ip. How it is done: Plasma and brain samples for measuring compounds concentrations were collected at predetermined times from four wild type mice per point. Three time points were measured: 0.25, 0.5 and 1.0 hour. Compounds concentration was measured using a Xevo-TQ MS triple quadropole mass spectrometer with an electrospray ionization (ESI) source and an Acquity UPLC (Waters, Manchester, UK).
[…]. Compounds were injected as a single intraperitoneal injection. Animals were killed by decapitation.
Plasma. Blood was collected into tubes containing EDTA and plasma was collected via centrifugation (4° C., 13200 rpm, 5 min) and stored at −80° C. until analysis.
Brain. Brains were collected immediately after mice death. The brains were excised, weighed and frozen at −80° C. until further process for analysis.
Chromatographic separation was performed by gradient elution at 0.4 mL/min using an Acquity UPLC BEH C18 column (100×2.1 mm, 1.7 μm particle size; Waters). The mobile phase consisted of A: water with 0.1% formic acid, B: methanol with 0.1% formic acid. After 1.5 min at the initial condition of 95% A, solvent B was increased from 5% to 100% over 2 min, maintained at 100% for 1.5 min, then a linear gradient to initial conditions was applied for 0.1 min and maintained for 3.4 minutes to re-equilibrate the column, giving a cycle time of 8.5 min. The autosampler temperature was set at 10° C. and column temperature at 45° C.
Compounds were monitored using a triple quadrupole mass spectrometer equipped with an electrospray ionization interface. For detection and quantification, a capillary voltage of 3.5 kV and a cone voltage of 38 V were used. Source and desolvation temperatures were 150° C. and 650° C., respectively. Ultra-high purity nitrogen was used for cone gas (75 L h^−1) and desolvation gas (1000 L h^−1). The electrospray ionization operated in the positive mode, and the collision gas used was ultra-pure argon at a flow rate of 0.15 mL min^−1.
Quantification was achieved by external calibration using matrix-matched standards. Concentrations were calculated using a weighted least-squares linear regression (W=1/×). […]. The mixture was then agitated for 10 min and centrifuged at 13200 rpm for 5 min at 4° C. The resulting supernatants were transferred to a Ostro plate (Waters, Manchester, UK), designed to remove phospholipids. The resulting eluents were evaporated at 37° C. under a stream of nitrogen. Residues were dissolved in 75 μL of a mixture of methanol and water (50:50, v:v). A 10-uL aliquot of the resulting solution was injected onto the LC-MS/MS system for analysis. Frozen plasma samples were thawed at room temperature, vortexed thoroughly and subjected to the above described extraction procedure. Brain samples were thawed unassisted at room temperature and homogenized using a Branson 250 ultrasonic sonifier (Branson, Danbury, Conn., USA). When homogenized, 75 mg were weighted and extracted as described previously.
Concentration values obtained from the LC-MS/MS analyses are described in Table 4.

The next data set concerns the target HDAC1 (Homo sapiens, UniProt Q13547). In words: HDAC enzyme activity assay (fluorogenic substrate), HDAC1. The data set is classed as biochemical. Conditions: read-out: HDAC1 inhibition (IC50).
Another data set deals with T2, PDE9A isoform b (Homo sapiens, UniProt O76083).
T2 construct: they are full-length with N-terminal GST tag; GST (N); purchased BPS Biosciences 60090; host or cells: baculovirus infected Sf9 cells
T2 sequence (O76083 1-533 isoform O76083-2): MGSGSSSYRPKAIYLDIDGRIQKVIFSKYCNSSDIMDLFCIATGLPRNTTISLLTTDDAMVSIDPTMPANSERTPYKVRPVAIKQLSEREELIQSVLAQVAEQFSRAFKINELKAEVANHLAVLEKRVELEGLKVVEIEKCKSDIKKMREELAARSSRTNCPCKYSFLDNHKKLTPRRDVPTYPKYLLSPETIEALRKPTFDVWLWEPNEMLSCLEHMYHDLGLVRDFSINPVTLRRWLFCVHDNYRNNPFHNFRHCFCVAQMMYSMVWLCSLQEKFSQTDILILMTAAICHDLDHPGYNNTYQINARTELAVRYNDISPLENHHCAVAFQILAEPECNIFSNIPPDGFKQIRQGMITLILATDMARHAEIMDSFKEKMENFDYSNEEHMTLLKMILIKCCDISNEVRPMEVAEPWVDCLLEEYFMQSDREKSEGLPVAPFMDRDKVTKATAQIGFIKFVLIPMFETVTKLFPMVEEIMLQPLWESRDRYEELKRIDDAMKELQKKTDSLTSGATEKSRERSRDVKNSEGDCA
The experiment in a line: PDE enzyme activity assay (HTRF cGMP), PDE9A. The data set is classed as biochemical. To be noted: recombinant enzyme; read-out: PDE9A inhibition (IC50).

For the next data set, the system named is AcH3. The experiment in a line: In-vivo activity, hippocampus of wild type mice: AcH3. Details: species or system mouse. Conditions: i.p. 40 mg/kg, hippocampus one hour later. The procedure:
as §1, §2

The target of a further data set is PDE4D7 (Homo sapiens, UniProt Q08499). In words: PDE enzyme activity assay (HTRF cGMP), PDE4D7. The data set is classed as biochemical. To be noted: read-out: PDE4D7 inhibition (IC50). The text has this: The biochemical assay to measure PDE5A, PDE9A isoform b, PDE4D7, and PDE4A1 enzyme activities relies on the HTRF cGMP assay kit from CisBio (CisBio, Cat. #62GM2PEB), that determines the amount of cGMP present in the reaction. The enzymes were obtained from BPS Biosciences (GenBank Accession number for PDE5A: NM_001083, Cat. #60050; PDE9A: NM_001001567, Cat. #60090; PDE4D7: NM_001165899, Cat. #60047; and PDE4A1: U97584, Cat. #60040) and they are full-length with N-terminal GST tag. They were expressed in a baculovirus infected Sf9 cell expression system.
Sequence of PDE4D7 (Q08499 1-748 isoform Q08499-11): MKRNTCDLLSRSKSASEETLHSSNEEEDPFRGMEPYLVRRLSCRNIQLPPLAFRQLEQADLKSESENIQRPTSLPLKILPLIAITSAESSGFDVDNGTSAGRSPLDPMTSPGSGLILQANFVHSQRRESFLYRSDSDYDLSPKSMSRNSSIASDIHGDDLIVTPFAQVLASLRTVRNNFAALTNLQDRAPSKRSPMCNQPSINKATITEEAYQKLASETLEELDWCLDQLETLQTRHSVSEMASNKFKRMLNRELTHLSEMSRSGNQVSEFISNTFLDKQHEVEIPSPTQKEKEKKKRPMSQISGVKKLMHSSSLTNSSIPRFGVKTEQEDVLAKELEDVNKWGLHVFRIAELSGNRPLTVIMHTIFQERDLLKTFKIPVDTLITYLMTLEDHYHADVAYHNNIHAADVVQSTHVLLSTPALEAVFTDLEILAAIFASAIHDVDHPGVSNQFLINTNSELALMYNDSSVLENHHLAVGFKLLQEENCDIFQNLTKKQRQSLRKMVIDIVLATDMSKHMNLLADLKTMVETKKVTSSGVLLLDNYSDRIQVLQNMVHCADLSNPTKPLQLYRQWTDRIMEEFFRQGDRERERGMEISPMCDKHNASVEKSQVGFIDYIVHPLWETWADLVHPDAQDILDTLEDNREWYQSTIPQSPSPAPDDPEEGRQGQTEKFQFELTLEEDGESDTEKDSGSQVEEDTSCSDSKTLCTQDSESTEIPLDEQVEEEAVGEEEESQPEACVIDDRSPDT
For each enzyme, enzyme activity assay was carried out in a 384-well plate in a final volume of 20 μL, as follows: • 2.5 μL of vehicle or studied compound 4× concentrated prepared in assay buffer containing 50 mM Tris-HCl, 6 mM MgCl2, pH 7.4 (PDE5A, PDE4D7, PDE4A1) and additionally 0.03% Tween-20 (PDE9A). Final percentage of DMSO was 0.5%. • 2.5 μL of PDE5A (7 μg/mL) or 2.5 μL PDE9A (0.2 μg/mL) or 2.5 μL PDE4D7 (1.25 μg/mL) or 2.5 μL PDE4A1 (1.5 μg/mL) diluted in assay buffer. […]
Fluorescence of each well was determined at […] using the plate reader EnVision (Perkin-Elmer). Results were calculated from the 665 nm/620 nm ratio. […]

The target of the next data set is T3, PDE4A1 (Homo sapiens, UniProt P27815).
T3 construct: they are full-length with N-terminal GST tag; GST (N); purchased BPS Biosciences 60040; host or cells: baculovirus infected Sf9 cells
T3 sequence (P27815 1-647 isoform P27815-4): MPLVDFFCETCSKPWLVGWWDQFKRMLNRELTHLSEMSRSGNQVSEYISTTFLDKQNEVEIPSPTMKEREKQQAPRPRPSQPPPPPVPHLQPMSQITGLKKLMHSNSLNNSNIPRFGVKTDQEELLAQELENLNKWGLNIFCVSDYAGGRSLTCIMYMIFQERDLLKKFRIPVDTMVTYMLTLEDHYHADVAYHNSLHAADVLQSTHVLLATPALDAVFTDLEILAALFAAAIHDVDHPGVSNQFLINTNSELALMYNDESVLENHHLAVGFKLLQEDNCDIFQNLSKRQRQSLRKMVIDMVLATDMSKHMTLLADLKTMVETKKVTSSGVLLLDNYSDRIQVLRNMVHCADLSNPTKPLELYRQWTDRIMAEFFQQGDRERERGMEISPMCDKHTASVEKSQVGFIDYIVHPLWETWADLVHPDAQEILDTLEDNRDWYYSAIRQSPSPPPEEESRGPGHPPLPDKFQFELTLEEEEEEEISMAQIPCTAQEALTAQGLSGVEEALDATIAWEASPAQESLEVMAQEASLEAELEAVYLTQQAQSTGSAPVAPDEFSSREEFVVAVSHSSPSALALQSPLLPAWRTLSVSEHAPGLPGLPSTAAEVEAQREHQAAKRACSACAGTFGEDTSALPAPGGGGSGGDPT
The experiment in a line: PDE enzyme activity assay (HTRF cGMP), PDE4A1. The data set is classed as biochemical. To be noted: read-out: PDE4A1 inhibition (IC50).

The test system of data set [5] is phosphorylated tau (p-tau). The experiment in a line: AD-related markers in Tg2576 neurons: pTau. The data set is classed as cell-based. Conditions: Mus musculus, Neuron, 48 h, treated two days, EC50 = 50% decrease in pTau over basal.
Another data set has as its system pTau. The experiment in a line: AD-related markers in Tg2576 mice after chronic treatment: pTau. The data set is classed as in vivo, mouse. Conditions: chronic treatment (3-5 weeks), hippocampal homogenates. The procedure:
AD-related markers (APP processing, pTau and acetylated-tubulin) in Tg2576 mice. The effects of the compounds were also analysed in Tg2576 mice after chronic treatment (3-5 weeks) using hippocampal homogenates obtained in a buffer containing SDS (2%) and following the same protocol as described in the in vitro studies.

Where two headings read alike, the source gives them in different places. Marks after values point to notes of the source that are not given here.

Sequence of HDAC1 (Q13547 whole entry, canonical isoform): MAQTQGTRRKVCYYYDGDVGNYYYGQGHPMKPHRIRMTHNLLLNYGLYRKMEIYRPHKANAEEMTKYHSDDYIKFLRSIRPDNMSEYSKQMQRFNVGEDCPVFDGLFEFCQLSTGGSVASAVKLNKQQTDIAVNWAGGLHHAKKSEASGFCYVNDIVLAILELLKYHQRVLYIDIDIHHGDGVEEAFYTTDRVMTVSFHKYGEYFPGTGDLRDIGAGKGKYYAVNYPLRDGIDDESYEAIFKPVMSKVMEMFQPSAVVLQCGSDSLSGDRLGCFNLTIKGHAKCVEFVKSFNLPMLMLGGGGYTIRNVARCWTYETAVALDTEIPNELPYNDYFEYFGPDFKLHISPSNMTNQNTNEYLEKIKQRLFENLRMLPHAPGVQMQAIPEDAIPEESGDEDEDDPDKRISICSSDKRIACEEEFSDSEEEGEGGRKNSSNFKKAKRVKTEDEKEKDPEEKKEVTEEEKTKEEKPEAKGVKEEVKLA

`CCCc1nn(C)c2c(=O)[nH]c(-c3cc(OC4CCN(c5ncc(C(=O)NO)cn5)CC4)ccc3OCC)nc12` [Example 1-12]: the EC50 in the data set on pCREB [1] fell in the range of 10 to 1000 nM; in data set [3] (Mus musculus, Neuron, 0.5 h, read-out: AcH3 (EC50)) it was 10 to 1000 nM. In addition, in the data set with pCREB [2], the “pCREB, increment in biological response vs basal” value was “+++ (basal×2≦(+++)<basal×3)”. Besides, the IC50 at PDE5A lay within 10 to 1000 nM; on HDAC1 (recombinant enzyme), 10 to 1000 nM; at PDE9A isoform b, 1000 to 10000 nM. Besides, the “CMax (brain; nmol/Kg)” value in [4] (in vivo, 40 mg/kg) is on record as 71.3 (19.5)^c nmol/Kg. Also, the Tmax in data set [4] (dosage 40 mg/Kg, single intraperitoneal injection, wild type mice, time of maximum concentration in brain) was 15 min. This compound also gave a Cmax in data set [4] (plasma, dosage 40 mg/Kg, single intraperitoneal injection, wild type mice, at tMax, (Standard Deviation)) of 1880 nM. The “AcH3, increment in biological response vs basal” value in the data set with AcH3 was “++ (basal×1≦(++)<basal×2)”.

As to `COc1ccc(N(C(=O)c2c(Cl)cncc2Cl)C2CCN(c3ncc(C(=O)NO)cn3)CC2)cc1OC1CCCC1` [Example 5-04], the IC50 is 10 to 1000 nM on HDAC1, above 10000 nM on PDE4D7 and above 10000 nM on PDE4A1.

Take `COc1ccc(N(CCCCCCC(=O)NO)C(=O)c2c(Cl)cncc2Cl)cc1OC1CCCC1` [Example 5-05, 7-(N-[3,5-Dichloropyridin-4-ylcarbonyl]-N-[(3-(cyclopentyloxy)-4-methoxyphenyl)]amino)-N-hydroxyheptanamide]: the IC50 at HDAC1 (recombinant enzyme) is 10 to 1000 nM; on PDE4D7 (recombinant enzyme), above 10000 nM; at PDE4A1 (recombinant enzyme), 1000 to 10000 nM.

Consider `C[C@@H]1CN(Cc2ncccn2)C[C@H]1c1nc2c(cnn2C2CCOCC2)c(=O)[nH]1` [PF-4447943, 6-[(3S,4S)-4-methyl-1-(pyrimidin-2-ylmethyl)pyrrolidin-3-yl]-1-(tetrahydro-2H-pyran-4-yl)-1H-pyrazolo[3,4-d]pyrimidin-4(5H)-one, reference compound], for which the IC50 at PDE5A and on PDE4A1 (recombinant enzyme) was 1000 to 10000 nM each time.

`CN1CC(=O)N2[C@H](c3ccc4c(c3)OCO4)c3[nH]c4ccccc4c3C[C@@H]2C1=O` [Tadalafil, reference compound]: the EC50 (with pCREB [1]; in data set [5]) was 10 to 1000 nM throughout. In the data set on pCREB [2], the “pCREB, increment in biological response vs basal” value is listed as “+++ (basal×2≦(+++)<basal×3)”. Moreover, the “AcH3 (EC50)” value in [3] was “N.E”. In addition, in the data set on pTau, the “pTau, increment in biological response vs basal” value is reported as “+++ (basal×2≦(+++)<basal×3)”. For the same compound, the 50% inhibitory concentration (IC50) at HDAC1 (recombinant enzyme) and on PDE9A isoform b was above 10000 nM each time. In addition, the “AcH3, increment in biological response vs basal” value with AcH3 is recorded as “N.E. (N.E. means No Effect)”.
